Measured values from patent publication US12060333B2 (Hoffmann-La Roche Inc., priority 2021, dated 2024).
Where two headings read alike, the source gives them in different places.

What was measured:
SARS-CoV-2 3CLpro = SARS-CoV-2 3CLpro (Severe acute respiratory syndrome coronavirus 2, UniProt P0DTD1); test: biochemical
HCoV-229E 3CLpro = HCoV-229E 3CLpro (Human coronavirus 229E, UniProt P0C6X1); test: HCoV-229E 3CLpro inhibition assay (FRET); type: biochemical; details: protease 25 nM, FRET substrate 15 μM, pre-incubated 1 hr, read-out: 229E (activity in different coronaviruses)
Protocol: HCoV-229E 3CL^pro inhibition assay
The HCoV-229E 3CL^pro was expressed in E. coli BL21 (DE3) with the protein sequence of
For the HCoV-229E 3CL^pro assay, 2 μL of […] recombinant HCoV-229E 3CL protease were mixed with serial dilutions of each compound in 4 μL assay buffer containing 40 mM HEPES, pH=8.0, 1 mM CHAPS, 150 mM NaCl, 1 mM EDTA, 1 mM TCEP in a well of a 384-well plate and pre-incubated at rt for 1 hr. The custom-synthesized fluorogenic 3CL^pro peptide substrate used in the assay is as follows: FAM-[…]-TAMRA (peptide sequence according to SEQ ID NO: 3). This FRET-based substrate contains a FAM fluorophore attached at the N-terminus of a canonical 3CL^pro peptide substrate. The fluorophore is internally quenched by the TAMRA. The reaction was initiated by the addition of 10 μL of the substrate with a final concentration of 15 μM and each well was incubated at RT for 30 mins. The final concentration of the protease used at the assay was 25 nM and each compound was at a final concentration range of 100-0.0016 μM. The IC50 value which is the value causing 50% inhibition of the catalytic activity of the HCoV-229E 3CL^pro was calculated by four parameters equation analysis.

MERS-CoV 3CLpro = MERS-CoV 3CLpro (Middle East respiratory syndrome-related coronavirus, UniProt K9N7C7); test: biochemical
SARS-CoV 3CLpro = SARS-CoV 3CLpro (Severe acute respiratory syndrome coronavirus, UniProt P0C6X7); test: biochemical; details: read-out: SARS (activity in different coronaviruses)
[1] = read-out: IC50 (μM), SARS-CoV-2 3CLPro assay
[2] = IC50 (μM), SARS-CoV-2 3CLPro assay

SMILES	IC50 (SARS-CoV-2 3CLpro; [1])	IC50 (SARS-CoV-2 3CLpro; [2])	other results
Cc1cc(C(=O)N[C@@H](CCC(C)C)C(=O)NN(C[C@@H]2CCNC2=O)C(=O)[C@H](F)Cl)no1 [Example 101, N-[(1S)-1-[[[(2R)-2-chloro-2-fluoro-acetyl]-[[(3S)-2-axopyrrolidin-3-yl]methyl]amino]carbamoyl]-4-methyl-pentyl]-5-methyl-isoxazole-3-carboxamide]	0.09 µM	–	IC50 (HCoV-229E 3CLpro): 0.074 µM; IC50 (MERS-CoV 3CLpro): 0.32 µM; IC50 (SARS-CoV 3CLpro): 0.16 µM
O=C(N[C@@H](CC12CC(C1)C2)C(=O)NN(C[C@@H]1CCNC1=O)C(=O)[C@H](F)Cl)c1cc(C(F)(F)F)on1 [Example 99, N-[(1S)-1-(1-bicyclo[1.1.1]pentanylmethyl)-2-[2-[(2R)-2-chloro-2-fluoro-acetyl]-2-[[(3S)-2-axopyrrolidin-3-yl]methyl]hydrazino]-2-axo-ethyl]-5-(trifluoromethyl)isoxazole-3-carboxamide]	0.071 µM	–	IC50 (HCoV-229E 3CLpro): 0.024 µM
Cc1cc(C(=O)N[C@@H](CC23CC(C2)C3)C(=O)NN(C[C@@H]2CCNC2=O)C(=O)[C@H](F)Cl)no1 [Example 71, N-[(1S)-1-(1-bicyclo[1.1.1]pentanylmethyl)-2-[2-[(2R)-2-chloro-2-fluoro-acetyl]-2-[[(3S)-2-axopyrrolidin-3-yl]methyl]hydrazino]-2-axo-ethyl]-5-methyl-isoxazole-3-carboxamide]	–	0.11 µM	IC50 (HCoV-229E 3CLpro): 0.025 µM
CC(C)C[C@H](NC(=O)OCc1ccccc1)C(=O)NN(CCC(N)=O)C(=O)CBr [Example 7, Benzyl N-[(1S)-1-[[(3-amino-3-oxo-propyl)-(2-bromoacetyl)amino]carbamoyl]-3-methyl-butyl]carbamate]	0.54 µM	–	–
NC(=O)CCN(NC(=O)[C@H](CC1CCCC1)NC(=O)OCc1ccccc1)C(=O)CCl [Example 10, Benzyl N-[(1S)-2-[2-(3-amino-3-oxo-propyl)-2-(2-chloroacetyl)hydrazino]-1-(cyclopentylmethyl)-2-axo-ethyl]carbamate]	0.006 µM	–	–
CC(C)C[C@H](NC(=O)OCc1ccccc1)C(=O)NN(CCC(N)=O)C(=O)C(Cl)c1ccccc1 (stereo partly drawn) [Example 3, Benzyl N-[(1S)-1-[[(3-amino-3-oxo-propyl)-(2-chloro-2-phenyl-acetyl)amino]carbamoyl]-3-methyl-butyl]carbamat]	0.89 µM	–	–
CC(C)C[C@H](NC(=O)c1nc2cc(Cl)ccc2[nH]1)C(=O)NN(CCC(N)=O)C(=O)[C@H](F)Cl (racemic) [Example 60-B, 5-chloro-N-[rac-(1S)-1-[[(3-amino-3-oxo-propyl)-[rac-(2R)-2-chloro-2-fluoro-acetyl]amino]carbamoyl]-3-methyl-butyl]-1H-benzimidazole-2-carboxamide]	–	0.052 µM	–
CC(C)C[C@H](NC(=O)c1cc2c(Cl)cccc2[nH]1)C(=O)NN(CCC(N)=O)C(=O)[C@@H](F)Cl (single isomer, unassigned) [Example 53-A]	–	0.014 µM	–
CC(C)C[C@H](NC(=O)c1cc2cc(Cl)ccc2[nH]1)C(=O)NN(CCC(N)=O)C(=O)[C@H](F)Cl (racemic) [Example 58-B, 5-chloro-N-[rac-(1S)-1-[[(3-amino-3-oxo-propyl)-[rac-(2R)-2-chloro-2-fluoro-acetyl]amino]carbamoyl]-3-methyl-butyl]-1H-indole-2-carboxamide]	–	0.007 µM	–
CC(C)C[C@H](NC(=O)OCc1ccccc1)C(=O)NN(Cc1c[nH]cn1)C(=O)CCl [Example 24, Benzyl N-[(1S)-1-[[(2-chloroacetyl)-(1H-imidazol-4-ylmethyl)amino]carbamoyl]-3-methyl-butyl]carbamate]	0.087 µM	–	–
NC(=O)CCN(NC(=O)CNC(=O)OCc1ccccc1)C(=O)CCl [Example 1, Benzyl N-[2-[2-(3-amino-3-oxo-propyl)-2-(2-chloroacetyl)hydrazino]-2-axo-ethyl]carbamate]	4.59 µM	–	–
CC(C)C[C@H](NC(=O)c1ccon1)C(=O)NN(CCC(N)=O)C(=O)CCl [Example 43, N-[(1S)-1-[[(3-Amino-3-oxo-propyl)-(2-chloroacetyl)amino]carbamoyl]-3-methyl-butyl]isoxazole-3-carboxamide]	0.036 µM	–	–
NC(=O)CCN(NC(=O)[C@H](CC1CCCCC1)NC(=O)OCc1ccccc1)C(=O)[C@@H](F)Cl (single isomer, unassigned) [Example 16-A]	–	0.053 µM	–
Cc1cc(C(=O)N[C@@H](CC2CCCCC2)C(=O)NN(CCC(N)=O)C(=O)CCl)no1 [Example 48, N-[(1S)-2-[2-(3-amino-3-oxo-propyl)-2-(2-chloroacetyl)hydrazino]-1-(cyclohexylmethyl)-2-axo-ethyl]-5-methyl-isoxazole-3-carboxamide]	0.004 µM	–	–
COc1cccc2[nH]c(C(=O)N[C@@H](CC(C)C)C(=O)NN(CCC(N)=O)C(=O)CCl)cc12 [Example 27, 4-Methoxy-N-[(1S)-1-[[(3-amino-3-oxo-propyl)-(2-chloroacetyl)amino]carbamoyl]-3-methyl-butyl]-1H-indole-2-carboxamide]	–	0.006 µM	–
CC(C)C[C@H](NC(=O)OCc1ccccc1)C(=O)NN(CCC(N)=O)C(=O)C(C)Cl (stereo partly drawn) [Example 4, Benzyl N-[(1S)-1-[[(3-amino-3-oxo-propyl)-(2-chloropropanoyl)amino]carbamoyl]-3-methyl-butyl]carbamate]	0.33 µM	–	–
CC(C)C[C@H](NC(=O)c1cc2ccccc2[nH]1)C(=O)NN(CCC(N)=O)C(=O)CF [Example 31, N-[(1S)-1-[[(3-Amino-3-axo-propyl)-(2-fluoroacetyl)amino]carbamoyl]-3-methyl-butyl]-1H-indole-2-carboxamide]	–	0.65 µM	–
Cc1cc(C(=O)NC(CC(C)C)C(=O)NN(CCC(N)=O)C(=O)C(F)Cl)no1 (racemic) [Example 97, 5-Methyl-N-[rac-(1S)-1-[[(3-amino-3-oxo-propyl)-(2-chloro-2-fluoro-acetyl)amino]carbamoyl]-3-methyl-butyl]isoxazole-3-carboxamide]	–	0.91 µM	–
NC(=O)CCN(NC(=O)[C@H](CC1CCCCC1)NC(=O)c1cc2ccccc2[nH]1)C(=O)CCl [Example 35, N-[(1S)-2-[2-(3-Amino-3-axo-propyl)-2-(2-chloroacetyl)hydrazino]-1-(cyclohexylmethyl)-2-axo-ethyl]-1H-indole-2-carboxamide]	0.002 µM	–	–
CC(C)C[C@H](NC(=O)/C=C/c1ccc(Cl)cc1F)C(=O)NN(CCC(N)=O)C(=O)CCl [Example 34, 3-[(2-Chloroacetyl)-[[(2S)-2-[[(E)-3-(4-chloro-2-fluoro-phenyl)prop-2-enoyl]amino]-4-methyl-pentanoyl]amino]amino]propanamide]	0.005 µM	–	–
COc1cccc2[nH]c(C(=O)N[C@@H](CC(C)C)C(=O)NN(CCC(N)=O)C(=O)CF)cc12 [Example 30, N-[(1S)-1-[[(3-Amino-3-axo-propyl)-(2-fluoroacetyl)amino]carbamoyl]-3-methyl-butyl]-4-methoxy-1H-indole-2-carboxamide]	–	0.16 µM	–
CC(C)C[C@H](NC(=O)c1nc2ccccc2[nH]1)C(=O)NN(CCC(N)=O)C(=O)[C@@H](F)Cl (single isomer, unassigned) [Example 63-A]	–	0.043 µM	–
CC(C)C[C@H](NC(=O)c1cc2ccccc2[nH]1)C(=O)NN(C[C@H]1CCNC1=O)C(=O)CF (single isomer, unassigned) [Example 38-B]	–	3.16 µM	–
